Experimental data from BindingDB's records for doi:10.1016/j.bmcl.2004.02.020 (Pfizer, 2004).

target: T1, C-C chemokine receptor type 1 (Homo sapiens, UniProt P32246); assay: Compound was tested for inhibition of CCL3 binding to chemokine receptor-1; inactive at a concentration of 32 uM
T1 sequence (P32246 whole entry): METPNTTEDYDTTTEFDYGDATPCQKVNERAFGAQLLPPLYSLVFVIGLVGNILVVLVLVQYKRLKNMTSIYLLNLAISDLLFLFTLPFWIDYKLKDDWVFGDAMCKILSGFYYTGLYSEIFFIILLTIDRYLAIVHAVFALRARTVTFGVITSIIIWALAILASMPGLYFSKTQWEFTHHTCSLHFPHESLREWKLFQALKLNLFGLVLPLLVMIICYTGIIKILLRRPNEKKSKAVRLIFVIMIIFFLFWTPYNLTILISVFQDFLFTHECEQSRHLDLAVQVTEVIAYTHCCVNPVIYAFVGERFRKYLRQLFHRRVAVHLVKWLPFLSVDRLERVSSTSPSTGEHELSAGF

Row | IC50 | Compound
1 | < 50 µM | CNC(=O)[C@@H](CC(C)C)C[C@@H](O)[C@H](CC1CCCCC1)NC(=O)c1cnc2ccccc2c1
2 | < 50 µM | CNC(=O)[C@H](CC(C)C)C[C@@H](O)[C@@H](CC1CCCCC1)NC(=O)c1cnc2ccccc2c1
3 | < 50 µM | CNC(=O)[C@H](CC(C)C)C[C@@H](O)[C@H](CC1CCCCC1)NC(=O)c1cnc2ccccc2c1
4 | < 50 µM | CC[C@H](C)[C@H](NC(=O)c1cnc2ccccc2c1)[C@@H](O)C[C@@H](CC(C)C)C(=O)NC
5 | < 50 µM | CNC(=O)[C@@H](CC(C)C)C[C@H](O)[C@@H](CC1CCCCC1)NC(=O)c1cnc2ccccc2c1
6 | < 50 µM | CNC(=O)CC[C@H](O)[C@H](CC1CCCCC1)NC(=O)c1cnc2ccccc2c1
